Article PMC9967645, “OAT3 Participates in Drug–Drug Interaction between Bentysrepinine and Entecavir through Interactions with M8—A Metabolite of Bentysrepinine—In Rats and Humans In Vitro” (Molecules, 2023)
Where “and” joins values, the source holds several entries; their conditions need not be identical. Identical values can stand only once. Like-named read-outs stand apart in the source and are kept apart here.

Columns and labels:
[1] = Pharmacokinetic study in rats, intravenous Y101 with or without PRO; format: in vivo, Sprague–Dawley (SD) rats; settings: for Tmax / half-life / AUC(0-inf) / AUC(0-t) / Cmax / Vd / clearance / C0: male, Sprague-Dawley, rat, plasma, iv, 25 mg/kg; for Tmax / half-life / AUC(0-inf) / AUC(0-t) / Cmax / Vd / C0: n = 3; for clearance: n = 3, read-out: CLp (plasma clearance) (converted)
Method: The effect of PRO on the pharmacokinetics of Y101 was studied in rats. Male rats surgically prepared with indwelling jugular cannula were randomly divided into two groups (n = 3): (1) Y101 alone (25 mg/kg) as a control and (2) Y101 + PRO (25 mg/kg for Y101 and 100 mg/kg for PRO) as an experimental group. The intravenous dose of Y101 was prepared as previously described. Both Y101 and PRO were injected by caudal vein to rats at volume of 5 mL/kg.
(§1) Following administration, serial blood samples were collected through jugular vein pre-dose (0 h) and post-dose at 0.033, 0.083, 0.25, 0.5, 1, 1.5, 2, 3, 4, 6, 9, 12, 24 and 30 h in heparinized Eppendorf tubes. The resulting samples were centrifuged at 13,800× g at 4 °C for 5 min to obtain plasma. All plasma samples were stored at −70 °C until analysis.
(§2) Biological samples were prepared as previously described.
(§3) Non-compartmental analysis with Phenix WinNonlin (version 8.1; Pharsight, Certara Corp, Princeton, NJ) was used to calculate the main pharmacokinetic parameters of ETV, Y101, M8 and M9 for individual rats. The observed values were reported for maximum concentration (Cmax) and time to reach maximum concentration (Tmax), while the area under the plasma concentration–time curve (AUC) was calculated via the default trapezoidal-up, log-trapezoidal-down approach.

rat kidney slices = test: In vitro uptake assay in kidney slices; format: in vitro ADME; settings: for time and temperature dependence of uptake in kidney slices: 37 °C vs 4 °C, M9 1.0 µM, 5 to 30 min
Method: The renal cortex was cut into 300 µm slices with a ZQP-86 tissue slicer (Shanghai Zhisun Equipment Co., Ltd., Shanghai, China; surface area 0.15 cm^2). […] Next, the kidney slices were prepared as previously described. Two slices per well were placed into 37 °C buffer filled with oxygen for pre-incubation for 3 min and then gently moved into a 24-well cell culture plate containing 1 mL oxygenated buffer at 4 °C or 37 °C. The uptakes of ETV (10 µM), Y101 (2.0 µM), M8 (5.0 µM) and M9 (1.0 µM) were measured at 5, 10, 15 and 30 min after the treatment, respectively. […] Following incubation at the designated time, kidney slices were collected, rinsed with ice-cold buffer three times, and dried on filter paper. After weighing and homogenization (IKA-T 10 homogenizer; IKA, Staufen, Germany), the concentrations of Y101, M8, M9 and ETV of kidney slice homogenates were determined as in the description below.
Biological samples were prepared as previously described. Aliquots (50 µL) of urine, plasma, kidney homogenates, or cell lysates were individually mixed with 150 µL methanol and 50 µL working solution of internal standard (acetaminophen or bestatin), followed by vortexing for 1 min and centrifuging at 13,800 g for 10 min. […] The resulting supernatant (1 µL) was subjected to LC-MS/MS for the assessment of Y101, M8, M9 and ETV, respectively. […] The concentrations of ETV, Y101, M8 and M9 were determined by an AB QTRAP 5500 LC–MS/MS System (Foster City, CA, USA) as previously described. Chromatographic separation was achieved on an Infinitylab Poroshell 120 EC-C18 (50 mm × 2.1 mm, 2.7 µm, Agilent Technology Inc., CA, USA) at 40 °C. The mobile phase consisted of formic acid-acetonitrile (0.05:100, v/v) and a mixture of 1 mmol-ammonium acetate-acetonitrile-formic acid (95:5:0.05, v/v/v) at a flow rate of 0.3 mL/min. […] Analyst1.5.2 software was used for data processing and analysis.

[2] = Pharmacokinetic DDI study in rats, oral Y101 and/or ETV; format: in vivo, Sprague–Dawley (SD) rats; settings: Sprague-Dawley, rat, plasma, n = 4
Method: Additionally, DDI between Y101 and ETV was investigated by monitoring time-course plasma Y101 in rats with surgery as described above. Animals were randomly placed into three groups (n = 4): (1) Y101 alone (25 mg/kg for intravenous treatment and 60 mg/kg for oral administration); (2) ETV (0.06 mg/kg); and (3) Y101 (25 mg/kg for intravenous treatment and 60 mg/kg for oral administration) + ETV (0.06 mg/kg). ETV was dissolved in saline at concentration of 12 µg/mL. Rats received an oral or intravenous dose of Y101 and/or ETV at volume of 5 mL/kg. The doses used in in vivo pharmacokinetic studies were selected in accordance with therapeutic doses of Y101 and ETV commonly used clinically and in previous studies.
as §1, §2, §3

[3] = design: method as in PMID 32277364; settings: healthy Chinese subjects, oral administration of Y101; cited from earlier work
[4] = Renal excretion study in rats (cumulative urinary excretion, renal clearance); format: in vivo, Sprague–Dawley (SD) rats; settings: for CL renal: Sprague-Dawley, rat, urine, iv, read-out: CLR (renal clearance) (converted)
Method: To investigate the effects of PRO on the renal excretion of Y101 and its metabolites, rats received an intravenous dose of Y101 (25 mg/kg) or Y101 + PRO (25 mg/kg for Y101 and 100 mg/kg for PRO) via the caudal vein. In order to verify the DDI between Y101 and ETV in renal excretion, rats received an intravenous dose of Y101 (25 mg/kg) and/or ETV (0.06 mg/kg) by caudal vein.
[…] Subsequently, urine samples were stored at −70 °C until analysis. The cumulative urinary excretion and renal clearance (CLR) were calculated as previously described.
as §2

[5] = i.v. Y101 25 mg/kg + PRO 100 mg/kg vs Y101 alone
[6] = i.v. Y101 25 mg/kg + PRO 100 mg/kg
[7] = ETV 10 µM, Y101 2.0 µM, M8 5.0 µM
[8] = oral Y101 60 mg/kg + ETV 0.06 mg/kg
[9] = 25 mg/kg, i.v. Y101 25 mg/kg + PRO 100 mg/kg
[10] = 25 mg/kg, i.v. Y101 25 mg/kg alone (Table 1, control of PRO study)
[11] = 25 mg/kg, i.v. Y101 25 mg/kg alone (Table 2, control of ETV study)
[12] = i.v. Y101 25 mg/kg + ETV 0.06 mg/kg
[13] = i.v. Y101 25 mg/kg + ETV 0.06 mg/kg, at 30 h post-dose
[14] = i.v. Y101 25 mg/kg + PRO 100 mg/kg, 0 to 48 h

| AUC(0-inf) [2, 8] [ng·h/mL] | AUC(0-t) [2, 8] [ng·h/mL] | Cmax [2, 8] [ng/mL] | Tmax [2, 8] [h] | half-life [2, 8] [h] | CL renal [4, 12] [mL/min/kg] | SMILES | half-life [1, 6] [h] | AUC(0-inf) [1, 6] [ng·h/mL] | AUC(0-t) [1, 6] [ng·h/mL] | AUC(0-inf) ([1]; i.v. Y101 25 mg/kg alone) [ng·h/mL] | AUC(0-t) ([1]; i.v. Y101 25 mg/kg alone) [ng·h/mL] | half-life ([1]; i.v. Y101 25 mg/kg alone) [h] | time and temperature dependence of uptake in kidney slices (rat kidney slices; Y101 2.0 µM, M8 5.0 µM) | effect on the uptake of ETV in kidney slices (rat kidney slices; [7]) | AUC(0-inf) ([2]; oral Y101 60 mg/kg alone) [ng·h/mL] | AUC(0-t) ([2]; oral Y101 60 mg/kg alone) [ng·h/mL] | Cmax ([2]; oral Y101 60 mg/kg alone) [ng/mL] | Tmax ([2]; oral Y101 60 mg/kg alone) [h] | half-life ([2]; oral Y101 60 mg/kg alone) [h] | renal excretion [3] | other results |
| --- | --- | --- | --- | --- | --- | --- | --- | --- | --- | --- | --- | --- | --- | --- | --- | --- | --- | --- | --- | --- | --- |
| 10400 | 10300 | 1980 | 1.5 | 3.64 | 106 | CN(C)CCOc1ccc(CC(NC(=O)c2ccccc2)C(=O)O)cc1 (stereo not shown) [M8] | 3.45 | 21900 | 21900 | 8360 | 8300 | 4.07 | temperature-dependent | not affected | 10200 | 10100 | 2030 | 2.25 | 3.44 | 27.2 % of the dose | elevation in AUC value on co-administration of PRO [1, 5]: 163%; increase in Cmax value on co-administration of PRO [1, 5]: 2.6 fold; Tmax [1, 6]: 0.5 h; Cmax [1, 6]: 10100 ng/mL; Cmax ([1]; i.v. Y101 25 mg/kg alone): 3890 ng/mL; Tmax ([1]; i.v. Y101 25 mg/kg alone): 0.667 h; CL renal [4, 9]: 82.7 mL/min/kg; CL renal [4, 10]: 100 mL/min/kg; CL renal [4, 11]: 115 mL/min/kg; cumulative excretion in the urine [4, 13]: 59.7 ± 5.78 % of the dose; cumulative urinary excretion [4, 14]: 56.3 ± 3.00%; cumulative urinary excretion ([4]; i.v. Y101 25 mg/kg alone, at 48 h post-dose): 68.1 ± 6.97 % of the dose and 68.1 % of the dose |
| 7.41 | 6.76 | 2.94 | 0.875 | 1.45 | 33.3 | C=C1[C@H](CO)[C@@H](O)C[C@@H]1n1cnc2c(=O)[nH]c(N)nc21 [ETV, entecavir] | – | – | – | – | – | – | – | – | – | – | – | – | – | – | inhibition of the uptake of M8 in kidney slices (rat kidney slices; M8 5.0 µM, PCG 0.2 and 0.5 mM, PRO 0.1 mM, PAH 0.2 and 0.5 mM, TEA 0.2 mM, 10 min, ETV 10 µM): significantly inhibited the uptake of M8; inhibition of the uptake of Y101 in kidney slices (rat kidney slices; Y101 2.0 µM, PCG 0.2 and 0.5 mM, PRO 0.1 mM, PAH 0.2 and 0.5 mM, TEA 0.2 mM, 10 min, ETV 10 µM): did not show any inhibitory effects; AUC(0-inf) ([2]; oral ETV 0.06 mg/kg alone): 8.49 ng·h/mL; AUC(0-t) ([2]; oral ETV 0.06 mg/kg alone): 8.15 ng·h/mL; Cmax ([2]; oral ETV 0.06 mg/kg alone): 5.54 ng/mL; Tmax ([2]; oral ETV 0.06 mg/kg alone): 0.5 h; half-life ([2]; oral ETV 0.06 mg/kg alone): 1.1 h; CL renal ([4]; 0.06 mg/kg, i.v. ETV 0.06 mg/kg alone): 36.2 mL/min/kg; cumulative excretion in urine ([4]; i.v. ETV 0.06 mg/kg alone, at 30 h post-dose): 33.4 ± 1.55% |

| SMILES | AUC(0-inf) [2, 8] [ng·h/mL] | AUC(0-t) [2, 8] [ng·h/mL] | Cmax [2, 8] [ng/mL] | Tmax [2, 8] [h] | half-life [2, 8] [h] | CL renal [4, 12] [mL/min/kg] | half-life [1, 6] [h] | AUC(0-inf) [1, 6] [ng·h/mL] | AUC(0-t) [1, 6] [ng·h/mL] | AUC(0-inf) ([1]; i.v. Y101 25 mg/kg alone) [ng·h/mL] | AUC(0-t) ([1]; i.v. Y101 25 mg/kg alone) [ng·h/mL] | half-life ([1]; i.v. Y101 25 mg/kg alone) [h] | time and temperature dependence of uptake in kidney slices (rat kidney slices; Y101 2.0 µM, M8 5.0 µM) | effect on the uptake of ETV in kidney slices (rat kidney slices; [7]) | AUC(0-inf) ([2]; oral Y101 60 mg/kg alone) [ng·h/mL] | AUC(0-t) ([2]; oral Y101 60 mg/kg alone) [ng·h/mL] | Cmax ([2]; oral Y101 60 mg/kg alone) [ng/mL] | Tmax ([2]; oral Y101 60 mg/kg alone) [h] | half-life ([2]; oral Y101 60 mg/kg alone) [h] | renal excretion [3] | other results |
| --- | --- | --- | --- | --- | --- | --- | --- | --- | --- | --- | --- | --- | --- | --- | --- | --- | --- | --- | --- | --- | --- |
| CN(C)CCOc1ccc(C[C@H](NC(=O)c2ccccc2)C(=O)N[C@H](CO)Cc2ccccc2)cc1.Cl [Y101, N-[N-benzoyl-O-(2-dimethylaminoethyl)-l-tyrosyl]-l-phenylalaninol hydrochloride] | 1680 | 1620 | 843 | 0.313 | 1.11 | 7.93 | 0.706 | 2030 | 2020 | 2860 | 2840 | 0.798 | time- and temperature-dependent | not affected | 1620 | 1570 | 668 | 0.25 | 0.998 | 2.98 % of the dose | Vd [1, 6]: 12.5 L/kg; clearance [1, 6]: 207 mL/min/kg; C0 [1, 6]: 15800 ng/mL; C0 ([1]; i.v. Y101 25 mg/kg alone): 16000 ng/mL; Vd ([1]; i.v. Y101 25 mg/kg alone): 10.2 L/kg; clearance ([1]; i.v. Y101 25 mg/kg alone): 149 mL/min/kg; CL renal [4, 9]: 5.28 mL/min/kg; CL renal [4, 10]: 6.1 mL/min/kg; CL renal [4, 11]: 7.18 mL/min/kg; cumulative excretion in the urine [4, 13]: 4.48 ± 0.742 % of the dose; cumulative urinary excretion [4, 14]: 3.59 ± 0.526%; cumulative urinary excretion ([4]; i.v. Y101 25 mg/kg alone, at 48 h post-dose, 25 mg/kg): 4.16 ± 0.843 % of the dose and 4.16 % of the dose |
